# Source: patent publication US20080311589A1, “METHOD OF HIGH-THROUGHPUT SCREENING OF MOLECULES AND COMPOUNDS FOR THEIR EFFECTS ON BIOLOGICAL AND CHEMICAL PROCESSES” (priority 1999, published 2008)
# “Also recorded” adds a separate entry of the source. Like-named read-outs stand apart in the source and are kept apart here.
# Tests used:
# [1] = tested on: phosphonucleolin; assay: phosphonucleolin cytoblot, suppression of nocodazole-induced mitotic arrest; assay type: cell-based, human; details: A549 cells; pretreated 8 hour, then 250 nM nocodazole 12 hours
# Protocol: FIG. 10. The ability of anti-proliferative agents such as juglone to suppress the effects of nocodazole-induced mitotic arrest can be detected in a cytoblot. […] (b) A549 human lung carcinoma cells were seeded at a density of 4000 cells in 40 μL of DMEM+ in each well of a white, opaque 384-well plate and incubated overnight at 37° C. with 5% CO2. Cells were either untreated or pretreated with juglone at the indicated concentrations for 8 hour. Subsequently, nocodazole at a final concentration of 250 nM was added to all wells in a final volume of 50 μL and the cells incubated for a further 12 hours. A phosphonucleolin cytoblot was performed. […] A 4 mm scale bar is shown.
# The treatment of cells with any small molecule that arrests cells outside of mitosis will suppress the ability of nocodazole to arrest cells in mitosis. […] It was hypothesized that inhibition of Pin1, which is an essential, highly conserved PPIase required for proper mitotic division in Xenopus and yeast, would prevent entry into mitosis and consequently prevent accumulation of phosphonucleolin (FIG. 10a).
# [2] = UV spectral shift binding assay with 1a; details: UV 240-310 nm
# Protocol: (§1) UV SPECTRAL SHIFT BINDING ASSAY: A quartz cuvette with 1 mL deionized, distilled water was used as a blank on a Cary 1E UV-visible spectrophotomer. 1a or 2 was diluted to a final concentration of 15 μM or 20 μM, respectively, and the UV spectrum from 240 nm to 320 nm was measured. […] Upon addition of certain transition metals (Table 1), this peak shifted such that the new λmax was 273 nm and 310 nm, for 1a and 2, respectively. […] For the calculation of correlation coefficients, all values less than 7.5 μM were taken to be 7.5 μM, all values greater than 1000 μM were taken to be 1000 μm and all values less than 10 μM were taken to be 10 μM.
# [3] = tested on: transiently transfected TGFβ-responsive reporter; assay: transient transfection luciferase assay, p3TPLux; assay type: cell-based, mink
# Protocol: (§2) LUCIFERASE ASSAYS: Our transient transfection luciferase assay was described previously by us (Stockwell et al., Chem Biol 5:385, 1998). Briefly, 100,000 Mv1Lu mink lung epithelial cells were transiently transfected in 12-well dishes with 400 ng p3TPLux or pNFkB-Lux, with or without 50 ng pFC-MEKK, in 300 μL minimal essential medium with non-essential amino acids. The DEAE-dextran/chloroquine/DMSO methods was used for transfection (Stockwell et al., Chem Biol 6:71, 1999). After cell lysis in 120 μL lysis buffer, a Beckman LS 6500 liquid scintillation counter was used in single photon mode to quantitate luminescence. For detection of luciferase activity in 6F cells (including the primary screen), 20,000 6F cells were seeded in 50 μL of 10% mink medium in each well of a white 384-well plate (Nalge Nune International; Naperville, Ill.; cat#164610) using a Multidrop 384 liquid dispenser (Lab Systems; Helsinki, Finland). After 16 hours, medium was removed using a 24 channel wand (V&P Scientific, Inc.; San Diego, Calif.; cat#VP 186L), the cells were washed with 75 μL of 0.2% mink medium (containing 0.2% FBS), and reagents were added in 40 μL of 0.2% medium. For the primary screen, reagents were added by pin transfer using 384 polypropylene pin arrays (Matrix Technologies; Hudson, N.H.). After 24 hours, the cells were cooled on ice and washed twice with 75 μL Hanks Balanced Salt Solution (HBSS; GibcoBRL; cat#24020-117). Then 20 μL lysis buffer (25 mM glycylglycine (Sigma; cat#E-0396), 1% Triton X-100 (Sigma; cat#T-9284), 1 mM dithiothreitol (DTT; Sigma; cat#D-5545), 1 mM phenylmethylsulfonyl fluoride (PMSF; Sigma; cat#P-7626)) was added to each well with a Multidrop. After incubating the cells for five minutes on ice, 20 μL of ATP/luciferin solution was added (25 mM glycylglycine pH 7.8, 15 mM MgSO4, 4 mM EGTA, 6.25 mM K2HPO4 (Sigma; cat#P5504) pH 7.8, 5 mM DTT, 75 μM D-luciferin (Sigma, cat# L-9504, 2 mM ATP (Sigma; cat#A-7699)). Light output was immediately measured with an Analyst 384-well platereader (LJL), with 0.5 second counting time per well.
# [4] = tested on: control reporter responsive to NFκB; details: transiently transfected
# Protocol: as §2, with “After 16 hours, medium was removed using a 24 channel wand (V&P Scientific, Inc.; San Diego, Calif.; cat#VP 186L), the cells were washed with 75 μL of 0.2% mink medium (containing 0.2% FBS), and reagents were added in 40 μL of 0.2% medium. For the primary screen, reagents were added by pin transfer using 384 polypropylene pin arrays (Matrix Technologies; Hudson, N.H.). After 24 hours, the cells were cooled on ice and washed twice with 75 μL Hanks Balanced Salt Solution (HBSS; GibcoBRL; cat#24020-117). Then 20 μL lysis buffer (25 mM glycylglycine (Sigma; cat#E-0396), 1% Triton X-100 (Sigma; cat#T-9284), 1 mM dithiothreitol (DTT; Sigma; cat#D-5545), 1 mM phenylmethylsulfonyl fluoride (PMSF; Sigma; cat#P-7626)) was added to each well with a Multidrop.” left out
# [5] = tested on: S. cerevisiae strain BY4741
# Protocol: TRANSCRIPTIONAL PROFILING: We performed transcriptional profiling on yeast cells according to known techniques. […] We therefore set thresholds of 0.5 fold and 2.0 fold for transcriptional repression and transcriptional activation, respectively, in our experimental comparisons of untreated cells and cells treated with test compounds.
# Briefly, S. cerevisiae strain BY4741 (haploid) was streaked on a YPD plate, grown for 3 days at 30° C., and used to inoculate a 50 mL overnight culture of YPD. This culture was diluted into pre-warmed YPD such that A600=0.04 and allowed to grow until A600=0.47. The culture was split into pre-warmed flasks, with 50 mL in each of three flasks and 150 mL in a fourth flask. […] The cultures were centrifuged at 2500 g at room temperature for five minutes and the pelle frozen in liquid nitrogen. Total RNA was purified from each culture by hot acidic phenol/chloroform extraction and ethanol precipitation. Poly-A RNA wad purified with a Qiagen Oligotex mRNA Midi Kit (Qiagen; Valencia, Calif.; cat#70042). Fluorescently-labeled probe was prepared from […] poly-A mRNA and applied to glass slides that had been printed with 6240 yeast ORFs (James Hardwick, Jeffrey Tong, and Stuart L. Schreiber, unpublished results). The microarray was scanned with an Array Works scanner and the results were analyzed with Gene Spring software.
# [6] = tested on: p3TPLux TGFβ-responsive reporter in 6F mink lung cells; assay: luciferase assay, stably transfected p3TPLux; assay type: cell-based; details: for synergy with TGFβ: 400 pM TGFβ1; for reporter gene expression: stably transfected reporter
# Protocol: FIG. 19 graphs the dose-response of transcriptional activation of compounds 1a and 2 in the presence (*) or absence (•) of 400 pM TGFβ1. 20,000 6F mink lung cells ( ) were seeded in 384 well plates, allowed to attach for 16 hours in 10% mink medium, and were treated with the indicated concentrations of 1a or 2.
# We screened more than 16,000 chemical compounds to identify those that specifically activated expression of a reporter gene (luciferase) under the control of TGFβ-responsive elements in stably transfected mammalian cells (mink lung epithelial cells). […] Given the structural similarity of compounds 1a-c, we expected that all three were operating through a common mechanism. We therefore continued testing on only one, compound 1a, as representative of the group.
# [7] = tested on: mink lung epithelial cells; assay: BrdU cytoblot assay for S-phase progression; assay type: cell-based
# Excerpt: BRDU CYTOBLOT ASSAY: The BrdU cytoblot assay for S-phase progression was described previously by Stockwell et al. (Chem. Biol. 6:71, 1999; see also, U.S. Patent Application Ser. No. 60/094,305, incorporated herein by reference).
# Compounds that mimic TGFβ activity would be expected to be capable of inducing cell cycle arrest or apoptosis, and in particular to block DNA replication, in responding cells. We therefore used an S-phase progression cytoblot assay to test whether our compounds could inhibit 5-bromodeoxyuridine (BrdU) incorporation into mink epithelial cells. […] Both compounds were therefore classified as true TGFβ mimics.
# [8] = tested on: microtubules; assay: competition with fluorescently labeled taxol; assay type: binding; details: oregon green labeled taxol, fluorescence polarization
# Excerpt: (§3) Since taxol and discodermolide prevent cold depolymerization of microtubules (Hung et al., Chem. Biol. 3:287, 1996), we tested whether synstab A-treatment of cells would cause a similar effect. […] This mutually exclusive binding is consistent with the observed taxol-like effects of synstab A on cells and on purified microtubules.
# Three different assays were used to confirm microtubule-stabilizing effects in the in vitro tubulin polymerization assay by repeating the above experiment. In addition, three independent experiment assessments were carried out. 1) In vitro competition experiments with fluorescence-labeled taxol. […] 2) In vivo incubation of BSCI-cells (a monkey epithelial cell line) with 40 μM 1A for four hours. In brief, BSCI cells were seeded on glass coverslips and cultured overnight. […] 3) treatment of cells with 1A resulted index by the phosphonucleolin (TG-3) cytoblot as described above as measured visually.
# [9] = tested on: BS-C-1 cells; assay: fluorescence microscopy and live imaging of BS-C-1 cells; assay type: cell-based, monkey; details: BS-C-1 cells; 1A at 40 μM for 4 hours
# Excerpt: We investigated the phenotype of mammalian cells (BS-C-I) treated with the compounds of group III. […] Our examination of the distribution of microtubules, actin, and chromatin in fixed cells by fluorescence microscopy allowed us to divide the small molecules into three classes.
# We then asked whether the chromosomes surrounding the monoastral microtubule array maintain microtubule attachment.
# [10] = tested on: microtubules; assay: cold depolymerization of microtubules in cells; assay type: cell-based; details: 4° C., 0.5 h, taxol 10 μM, 4 h, synstab A 25 μM
# Excerpt: as §3
# [11] = tested on: TG-3 staining; assay: fluorescence-activated cell sorting and TG-3 immunoblotting; assay type: cell-based; details: concentrations that do not affect viability
# [12] = UV spectral shift binding assay with 2; details: UV 240-310 nm
# Protocol: as §1
Compound,activation of transiently versus stably transfected TGFβ-responsive reporter [3],activation of NFκB-responsive control reporter [4],synergy with TGFβ [6],reporter gene expression [6],BrdU incorporation [7],"microtubule, spindle and chromosome phenotype [9]",also measured
O=C1C=CC(=O)c2c(O)cccc21 [juglone],,,,,,,concentrations that prevent accumulation of phosphonucleolin [1]: greater than 25 microM
"CN(c1ccc2cccc(O)c2n1)c1ccc2cccc(O)c2n1 [Compound 1a, 2,2′-(methylimino)bis-8(quinolinol)]",less effective,Neither compound activated,synergistic with TGFβ,dose-dependent increase in reporter gene expression,inhibited BrdU incorporation; also recorded: inhibition of BrdU incorporation,showed bundling of interphasic microtubules and aberrant mitotic spindles with misaligned chromosomes,"binding of 1a to metals (shift in UV absorbance maximum) [2]: binds strongly to Zn^2+, Fe^2+, Cu^2+, Cu^+, and Al^3+, and less well to Mn^2+, Co^2+, and Ni^2+; […] IN PRESENCE OF COMPOUND […] IN ABSENCE OF COMPOUND ([5]; gene YAL045C (ARN1), Multi-drug resistance pump, repressed genes): 0.49; […] IN PRESENCE OF COMPOUND […] IN ABSENCE OF COMPOUND ([5]; gene YBL005WA, TyA transposon, activated genes): 2.2; […] IN PRESENCE OF COMPOUND […] IN ABSENCE OF COMPOUND ([5]; gene YHL040C (ARN1), multidrug resistance pump, activated genes): 2.0; competition for binding of fluorescently labeled taxol [8]: compete off bound labeled taxol"
CC(=O)O[C@H]1C(=O)[C@@]2(C)[C@H]([C@H](OC(=O)c3ccccc3)[C@]3(O)C[C@H](OC(=O)[C@H](O)[C@@H](NC(=O)c4ccccc4)c4ccccc4)C(C)=C1C3(C)C)[C@]1(OC(C)=O)CO[C@@H]1C[C@@H]2O [taxol],,,,,,less pronounced than that induced by synstab A,protection from cold depolymerization [10]: noticeably stabilized microtubules; TG-3 reactivity of total cell extracts [11]: increased TG-3 reactivity
"O=C(NN=Cc1ccccc1O)c1ccc(O)cc1 [Compound 2, Benzoic acid, 4-hydroxy, [(2-hydroxyphenyl)methylene]hydrazide]",less effective,Neither compound activated,synergistic with TGFβ,dose-dependent increase in reporter gene expression,inhibited BrdU incorporation; also recorded: inhibition of BrdU incorporation,,"binding of 2 to metals (shift in UV absorbance maximum) [12]: binds well to Fe^3+, Cu^2+, Cu^+, and CO^2+, and also shows some binding to Ni^2+; effect on gene expression in yeast cells [5]: no detectable effect on gene expression in yeast cells; synergy with metals in reporter activation [6]: synergized strongly with both Cu^+ and Cu^2+ but not with other metals; activity in screen (TGFβ-responsive luciferase reporter) ([6]; primary screen of more than 16,000 compounds): showed activity in our screen"
